In data set [1] the test system is Mus musculus. Description: Anesthetic activity in iv dosed Kunming mouse by up and down method. The data set is classed as functional.
Data set [2] can be described thus: Therapeutic index, ratio of LD50 for toxicity in iv dosed Kunming mouse assessed as lethal dose to ED50 for anesthetic activity in iv dosed Kunming mouse. The class given is organism-based. The conditions noted are these: in vivo, read-out: Ratio LD50/ED50.
Data set [3] is described as follows: Toxicity in iv dosed Kunming mouse assessed as lethal dose. The data set is classed as organism-based. The conditions noted are these: in vivo.
The subject of data set [4] is Mus musculus. Description: Anesthetic activity in Kunming mouse assessed as reappearance of flip reflex by measuring duration time administered as single bolus dose. The data set is classed as functional.
For data set [5], the system named is Mus musculus. The experiment in a line: Anesthetic activity in Kunming mouse assessed as disappearance of flip reflex by measuring onset time administered as single bolus dose. The data set is classed as functional.

Each structure is given as a SMILES string.

Usually ED50 stands for the midpoint of the dose-response relation. Low readings indicate greater potency, high ones weaker potency. One may read the LD50 as the dose at which mortality reaches 50%. Take `CCN1CCN(CCC(=O)Oc2c(C(C)C)cccc2C(C)C)CC1.Cl`: in the data set on Mus musculus [1], the 50% effect level (ED50) was put at a dose of 12 mg/kg. Further, in data set [2], the selectivity ratio amounted to 3.2. In addition, in data set [3], the LD50 is 38000 µmol/kg. The Time with Mus musculus [4] was determined as 167 s; in the data set on Mus musculus [5] it was 2 s.
The like results for `CCN1CCN(CC(=O)Oc2c(C(C)C)cccc2C(C)C)CC1.Cl` were, in that order, 8 mg/kg, 1.4, 11500 µmol/kg, 139 s and 13 s.
The corresponding values for `CCN(CC)CCC(=O)Oc1c(C(C)C)cccc1C(C)C.Cl` are 17 mg/kg, 3.5, 58800 µmol/kg, 162 s and 3 s.
The corresponding values for `CC(C)c1cccc(C(C)C)c1OC(=O)CCN1CCOCC1.Cl` are 12 mg/kg, 3.6, 43800 µmol/kg, 145 s and 16 s.
In turn, `CC(C)c1cccc(C(C)C)c1OC(=O)CCN1CCCCC1.Cl` gave an ED50 with Mus musculus [1] of 8.2 mg/kg. Moreover, in data set [2], the selectivity ratio stood at 4.5. Further, in data set [3], the LD50 came out at 36900 µmol/kg. Moreover, the results for the Time with Mus musculus [4] and in the data set with Mus musculus [5] were 152 s and 21 s, respectively.
The corresponding values for `CCCN(CCC)CC(=O)OCCCC(=O)Oc1c(C(C)C)cccc1C(C)C.Cl` are 9 mg/kg, 5.1, 45900 µmol/kg, 402 s and 37 s.
The corresponding values for `CCN(CC)CC(=O)OCCCC(=O)Oc1c(C(C)C)cccc1C(C)C.Cl` are 11 mg/kg, 4.8, 52800 µmol/kg, 371 s and 20 s.
The corresponding values for `CCN1CCN(CCCC(=O)OCCCC(=O)Oc2c(C(C)C)cccc2C(C)C)CC1.Cl` are 6.5 mg/kg, 4.9, 31900 µmol/kg, 456 s and 11 s.
`CC(C)c1cccc(C(C)C)c1OC(=O)CCCOC(=O)CN1CCCCC1.Cl`: the 50% effect level in the data set with Mus musculus [1] (ED50) was put at a dose of 8.3 mg/kg. In addition, the selectivity ratio in data set [2] came to 4.8. Further, the LD50 in data set [3] came to 39800 µmol/kg. Also, the Time in the data set on Mus musculus [4] stood at 440 s; in the data set on Mus musculus [5], 27 s.
The corresponding values for `CC1CCN(CCC(=O)Oc2c(C(C)C)cccc2C(C)C)CC1.Cl` are 9.2 mg/kg, 4.2, 38900 µmol/kg, 179 s and 41 s.
The corresponding values for `CC(C)c1cccc(C(C)C)c1OC(=O)CN1CCCCC1C.Cl` (stereo not given) are 9.2 mg/kg, 1.7, 15800 µmol/kg, 150 s and 27 s.
The corresponding values for `CC1CCN(CC(=O)OCCCC(=O)Oc2c(C(C)C)cccc2C(C)C)CC1.Cl` are 3.6 mg/kg, 4.8, 17600 µmol/kg, 362 s and 8 s.
Compound `CC(C)c1cccc(C(C)C)c1OC(=O)CCCOC(=O)CCCN1CCOCC1.Cl` showed an ED50 in the data set on Mus musculus [1] of 3.6 mg/kg. For the same compound, the selectivity ratio in data set [2] worked out at 4.9. In data set [3], the LD50 stood at 17500 µmol/kg. For the same compound, the Time in the data set on Mus musculus [4] is given as 375 s; with Mus musculus [5] it was 7 s.
Take `CCN1CCN(CC(=O)OCCCC(=O)Oc2c(C(C)C)cccc2C(C)C)CC1.Cl`: the 50% effect level in the data set on Mus musculus [1] (ED50) was put at a dose of 10.1 mg/kg. In data set [2], the selectivity ratio was found to be 5. Further, the LD50 in data set [3] is 50500 µmol/kg. The Time with Mus musculus [4] is 193 s; with Mus musculus [5] it was 16 s.
The corresponding values for `CC(C)c1cccc(C(C)C)c1OC(=O)CCN1CCN(C)CC1.Cl` are 9 mg/kg, 3.7, 33400 µmol/kg, 156 s and 14 s.
Take `CC1CCCN(CCCC(=O)OCCCC(=O)Oc2c(C(C)C)cccc2C(C)C)C1.Cl` (stereo not given): the ED50 with Mus musculus [1] was 1.9 mg/kg. Moreover, the selectivity ratio in data set [2] came out at 5.6. In addition, the LD50 in data set [3] was determined as 10700 µmol/kg. For the same compound, the Time in the data set on Mus musculus [4] was found to be 571 s; in the data set with Mus musculus [5] it was 11 s.
The like results for `CC1CCCN(CC(=O)OCCCC(=O)Oc2c(C(C)C)cccc2C(C)C)C1.Cl` (stereo not given) were, in that order, 2.9 mg/kg, 5.1, 14700 µmol/kg, 547 s and 16 s.
The corresponding values for `CC(C)c1cccc(C(C)C)c1OC(=O)CCCOC(=O)CCCN1CCCC1.Cl` are 8.9 mg/kg, 5.2, 46400 µmol/kg, 534 s and 1 s.
The corresponding values for `CC1CCN(CC(=O)Oc2c(C(C)C)cccc2C(C)C)CC1.Cl` are 11.1 mg/kg, 1.6, 18000 µmol/kg, 137 s and 11 s.
Compound `CC1CCCN(CC(=O)Oc2c(C(C)C)cccc2C(C)C)C1.Cl` (stereo not given) displayed an ED50 in the data set with Mus musculus [1] of 1.7 mg/kg. Moreover, the selectivity ratio in data set [2] was 2.3. In addition, in data set [3], the LD50 stood at 3900 µmol/kg. Also, the Time turned out to be 172 s in the data set with Mus musculus [4] and 27 s in the data set with Mus musculus [5].
The like results for `CC1CCN(CCCC(=O)OCCCC(=O)Oc2c(C(C)C)cccc2C(C)C)CC1.Cl` were, in that order, 2.5 mg/kg, 5.2, 13100 µmol/kg, 337 s and 3 s.
The corresponding values for `CC(C)c1cccc(C(C)C)c1OC(=O)CCCOC(=O)CN1CCCCC1C.Cl` (stereo not given) are 13 mg/kg, 4.8, 62800 µmol/kg, 317 s and 9 s.
In turn, `CC(C)c1cccc(C(C)C)c1OC(=O)CCCOC(=O)CN1CCCC1.Cl` displayed a 50% effective dose (ED50) with Mus musculus [1] of 11.3 mg/kg. Also, the selectivity ratio in data set [2] came out at 5. In addition, the LD50 in data set [3] turned out to be 56500 µmol/kg. Further, the Time in the data set with Mus musculus [4] was found to be 216 s; in the data set on Mus musculus [5], 18 s.
The corresponding values for `CC(C)c1cccc(C(C)C)c1OC(=O)CCN1CCCC1.Cl` are 15.1 mg/kg, 2.6, 3900 µmol/kg, 180 s and 5 s.
The corresponding values for `CC(C)c1cccc(C(C)C)c1OC(=O)CCCOC(=O)CCCN1CCCCC1.Cl` are 2.4 mg/kg, 5.1, 12300 µmol/kg, 413 s and 8 s.
The like results for `CCN(CC)CCCC(=O)OCCCC(=O)Oc1c(C(C)C)cccc1C(C)C.Cl` were, in that order, 7.1 mg/kg, 5.1, 36300 µmol/kg, 486 s and 24 s.
The compound `CC(C)c1cccc(C(C)C)c1OC(=O)CCCOC(=O)CN1CCOCC1.Cl` returned an ED50 with Mus musculus [1] of 8.2 mg/kg. Further, the selectivity ratio in data set [2] is 4.8. Further, the LD50 in data set [3] came out at 39600 µmol/kg. Moreover, the Time in the data set with Mus musculus [4] worked out at 434 s; in the data set with Mus musculus [5] it was 19 s.
The like results for `CC(C)c1cccc(C(C)C)c1OC(=O)CCCOC(=O)CCCN1CCCCC1C.Cl` (stereo not given) were, in that order, 6.2 mg/kg, 5.2, 32100 µmol/kg, 412 s and 9 s.
The like results for `CCCN(CCC)CCCC(=O)OCCCC(=O)Oc1c(C(C)C)cccc1C(C)C.Cl` were, in that order, 9.2 mg/kg, 5.2, 48100 µmol/kg, 536 s and 21 s.
The corresponding values for `CCCN(CCC)CCC(=O)Oc1c(C(C)C)cccc1C(C)C.Cl` are 15.2 mg/kg, 3.8, 57600 µmol/kg, 168 s and 5 s.
Compound `CC(C)c1cccc(C(C)C)c1OC(=O)CCN1CCCCC1C.Cl` (stereo not given) gave an ED50 with Mus musculus [1] of 14 mg/kg. In addition, the selectivity ratio in data set [2] came out at 4.1. In addition, in data set [3], the LD50 was determined as 57700 µmol/kg. For the same compound, the Time is on record as 154 s with Mus musculus [4] and 2 s in the data set on Mus musculus [5].
As for `CC1CCCN(CCC(=O)Oc2c(C(C)C)cccc2C(C)C)C1.Cl` (stereo not given), the ED50 in the data set with Mus musculus [1] amounted to 7.1 mg/kg. Further, the selectivity ratio in data set [2] is 4.1. The LD50 in data set [3] is 28700 µmol/kg. Further, the Time in the data set on Mus musculus [4] was 144 s; with Mus musculus [5], 18 s.
The corresponding values for `CC(C)c1cccc(C(C)C)c1O` [PROPOFOL] are 0.6 mg/kg, 2.7, 1600 µmol/kg, 57 s and 15 s.

Source of the values: ChEMBL document CHEMBL6074644, “Design, synthesis, and activity evaluation of water-soluble propofol derivatives as anesthetic drugs” (Bioorg Med Chem Lett, 2024).
